Reference: ChEMBL document CHEMBL3769359, “Design of Selective PAK1 Inhibitor G-5555: Improving Properties by Employing an Unorthodox Low-pK a Polar Moiety” (ACS Med Chem Lett, 2015)

How the values were obtained:
[1] = Hepatic clearance in human liver microsomes after 1 hr by LC-MS/MS analysis; format: ADME
[2] = Clearance in CD1 mouse blood at 2 mg/kg, iv after 8 hrs by LC/MS/MS; format: ADME, organism-based; conditions: whole blood
[3] = Half life in CD1 mouse blood at 2 mg/kg, iv after 8 hrs by LC/MS/MS; format: ADME, organism-based; conditions: whole blood
[4] = AUC (0 to 8 hrs) in CD1 mouse blood at 25 mg/kg, po after 8 hrs by LC/MS/MS; format: ADME, organism-based; set-up: time < 8 hr, dose 25 mg/kg, route oral; conditions: whole blood
[5] = Oral bioavailability in CD1 mouse blood at 25 mg/kg after 8 hrs by LC/MS/MS; format: ADME, organism-based; conditions: whole blood
[6] = Plasma clearance in cynomolgus monkey; format: ADME, organism-based, Macaca fascicularis
[7] = Oral bioavailability in cynomolgus monkey; format: ADME, organism-based, Macaca fascicularis; conditions: in vivo

| SMILES | CLhep predicted [1] [mL/min/kg] | further results |
| --- | --- | --- |
| CNc1ncc2cc(-c3ccc(-c4cccc(C)n4)cc3Cl)c(=O)n(C[C@H]3OC[C@H](NC)CO3)c2n1 | 13.8 | – |
| CNc1ncc2cc(-c3ccc(-c4cccc(C)n4)cc3Cl)c(=O)n(C[C@H]3OC[C@H](N)CO3)c2n1 | 11.6 | clearance [2]: 24.2 mL/min/kg; half-life [3]: 53 min; AUC(0-t) at 8 h [4]: 30 µM·h; bioavailability [5]: 80%; clearance [6]: 3.4 mL/min/kg; bioavailability [7]: 72% |
| CNc1ncc2cc(-c3ccc(-c4cncc(C)n4)cc3Cl)c(=O)n(C[C@H]3CNCCO3)c2n1 | 10.7 | – |
| CNc1ncc2cc(-c3ccc(-c4cccc(C)n4)cc3Cl)c(=O)n(CC3COC4(CNC4)OC3)c2n1 | 11.6 | – |
| CCNc1ncc2cc(-c3ccc(-c4cncc(C)n4)cc3Cl)c(=O)n(CCCO)c2n1 | 14.7 | – |

Now from value to compound, other results behind:

| CLhep predicted [1] [mL/min/kg] | SMILES | further results |
| --- | --- | --- |
| 9.6 | CCNc1ncc2cc(-c3ccc(-c4cncc(C)n4)cc3Cl)c(=O)n(C[C@H]3OC[C@H](N)CO3)c2n1 | – |
| 17.8 | CNc1ncc2cc(-c3ccc(-c4cccc(C)n4)cc3Cl)c(=O)n(C[C@@H]3CCNCC3(F)F)c2n1 | – |
| 12.5 | CCNc1ncc2cc(-c3ccc(-c4cncc(C)n4)cc3Cl)c(=O)n(CC3CCNC(=O)C3)c2n1 (centres undefined) | – |
